Experimental findings from patent publication US10377725B2, “Phenyl amino pyrimidine compound or polymorph of salt thereof” (Suzhou Zelgen Biopharmaceuticals Co., Ltd., priority 2015, dated 2019) are described below.

Structures are written as SMILES.

The nature of series [1]: accelerated stability test of polymorphs. Type of series: physicochemical. The note with it: accelerated test 40±2° C., 75%±5% RH, 6 months; for purity after accelerated test: compared to freshly prepared (0 Month).
A short description of series [2]: hygroscopicity test of polymorphs (Chinese Pharmacopoeia 2010 edition, Appendix XIX J). Type of series: physicochemical. The note with it: 25° C.±1° C., saturated ammonium sulfate solution, 24 h. Here is the method:
The test was performed according to the guiding principles of drug's hygroscopic test (Chinese Pharmacopoeia 2010 edition, Appendix XIX J).
1. Take 4 dry glass weighing bottles with lids (60 mm of the outer diameter and 30 mm of the height). On the day before the test, the bottles were placed in a glass dryer (“constant temperature and humidity dryer”) where a saturated ammonium sulfate solution was placed, and the glass dryer was placed in the bottom of a constant temperature and humidity box at 25° C.±1° C.
2. After each empty weighing bottle together with its lid were placed in the “constant temperature and humidity dryer” for 24 hours, stabilize precisely the weight of each unit by a set (one weighing bottle+its lid), recorded as m1.
3. A polymorph II sample was taken and tiled in a glass weighing bottle which had been weighed (the thickness of a sample was about 1 mm), and the bottle was covered, the weight of each weighing bottle (one weighing bottle+its lid+the sample) was precisely weighed, recorded as m2.
3. Each sample was placed in the “constant temperature and humidity dryer” for 24 h, and then the weight of each weighing bottle (one weighing bottle+its lid+the sample) was precisely weighed, recorded as m3.
4. The percentage of hygroscopicity weight increase of each sample was calculated (the formula was shown as follows), and it is defined as no or almost no hygroscopicity when the percentage of hygroscopicity weight increase is less than 0.2%. It is defined as slightly hygroscopicity when the percentage of hygroscopicity weight increase is equal or greater than 0.2%, but less than 2.0%. the percentage of weight increase=[(m3−m2)/(m2−m1)]×100%

On to `[2H]C1([2H])COCC([2H])([2H])N1c1ccc(Nc2nccc(-c3ccc(C(=O)NCC#N)cc3)n2)cc1` [polymorph V, N-(cyanomethyl)-4-(2-((4-(2′,2′,6′,6′-d4-morpholino)phenyl)amino)pyrimidin-4-yl)benzamide], for which, in series [1], the degradated impurity entry is recorded as “no obvious degradated impurity was observed”, the “stability of crystal form” value is recorded as “very stable” and the “purity after accelerated test” value is reported as “above 99%”.
Regarding `Cl.Cl.O.[2H]C1([2H])CN(c2ccc(Nc3nccc(-c4ccc(C(=O)NCC#N)cc4)n3)cc2)CC([2H])([2H])O1` [polymorph II, N-(cyanomethyl)-4-(2-((4-(2′,2′,6′,6′-d4-morpholino)phenyl)amino)pyrimidin-4-yl)benzamide dihydrochloride monohydrate], in series [2], the hygroscopicity result was “slightly hygroscopicity (slightly hygroscopicity when the percentage of hygroscopicity weight increase is equal or greater than 0.2%, but less than 2.0%)” and the “percentage of weight increase” value was 0.24%. Also, in series [1], the degradated impurity entry is listed as “no obvious degradated impurity was observed”, the “stability of crystal form” value is “very stable” and the “purity after accelerated test” value is “above 99%”.
Turning to `Cl.Cl.[2H]C1([2H])CN(c2ccc(Nc3nccc(-c4ccc(C(=O)NCC#N)cc4)n3)cc2)CC([2H])([2H])O1` [polymorph I, N-(cyanomethyl)-4-(2-((4-(2′,2′,6′,6′-d4-morpholino)phenyl)amino)pyrimidin-4-yl)benzamide dihydrochloride], the hygroscopicity entry in series [2] is reported as “slightly hygroscopicity (slightly hygroscopicity when the percentage of hygroscopicity weight increase is equal or greater than 0.2%, but less than 2.0%)”. In series [1], the degradated impurity entry is reported as “no obvious degradated impurity was observed”, the “stability of crystal form” value is “very stable” and the “purity after accelerated test” value is on record as “above 99%”.
As to `Cl.[2H]C1([2H])CN(c2ccc(Nc3nccc(-c4ccc(C(=O)NCC#N)cc4)n3)cc2)CC([2H])([2H])O1` [polymorph III, N-(cyanomethyl)-4-(2-((4-(2′,2′,6′,6′-d4-morpholino)phenyl)amino)pyrimidin-4-yl)benzamide monohydrochloride], in series [1], the degradated impurity result is recorded as “no obvious degradated impurity was observed”, the “stability of crystal form” value is “very stable” and the “purity after accelerated test” value is “above 99%”.
